Several values for one entry are separate records, joined by “and”; a condition that tells them apart may be missing. Identical values can stand only once.
Assays:
Assay type in all cases: biochemical
cathepsin C = molecular target: T1, cathepsin C (Schistosoma mansoni, UniProt Q26563); assay: Protease activity in S. mansoni adult extract, Gly–Arg–AMC; details: 1 μM gallinamide A, exopeptidase (aminodipeptidase), substrate Gly–Arg–AMC, mean ± SD
T1 construct: from tissue; host or cells: soluble protein extract of mixed sex S. mansoni adults
T1 sequence (Q26563 218-454): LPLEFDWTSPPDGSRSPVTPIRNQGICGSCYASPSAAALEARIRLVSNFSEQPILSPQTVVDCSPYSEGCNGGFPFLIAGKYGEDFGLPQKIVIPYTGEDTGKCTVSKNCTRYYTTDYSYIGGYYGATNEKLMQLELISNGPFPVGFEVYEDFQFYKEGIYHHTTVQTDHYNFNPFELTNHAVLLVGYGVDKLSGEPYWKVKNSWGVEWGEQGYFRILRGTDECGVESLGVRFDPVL
Text: (§1) We investigated whether gallinamide A inhibits the activity of the major proteases associated with proteolytic digestion in the adult schistosome gut. The digestive protease network includes the cysteine proteases cathepsins B, C, L from clan CA and legumain from clan CD, and an aspartic protease cathepsin D from clan AA.[11],[12] Their respective activities can be measured in protein extracts of S. mansoni using a kinetic assay with specific fluorogenic substrates. In addition, these activities can be attributed to particular proteases based on sensitivity to selective inhibitors[30]−[32] (Table 1). Accordingly, we exposed worm extracts to gallinamide A and analyzed the individual protease activities. Gallinamide A inhibited both the carboxydipeptidase (98%) and endopeptidase activities (94%) of cathepsin B as measured with the respective substrates, Abz–Phe–Arg–Val–Nph[15] and Cbz–Arg–Arg–AMC[33],[34] (Table 1). The activity measured with the Cbz–Phe–Arg–AMC substrate,[11],[13],[16],[33],[35] which can be cleaved by both cathepsins B and L, was inhibited by gallinamide A to a lesser extent (72%). […]
(§2) Proteolytic activities in S. mansoni adult extracts were measured in a continuous kinetic assay using the following peptidyl fluorogenic substrates (Bachem) or internally quenched FRET substrates (IOCB): 50 μM Cbz–Phe–Arg–AMC for cathepsins B and L,[13],[15] […]

cathepsin D = assay: Protease activity in S. mansoni adult extract, FRET substrate; details: 1 μM gallinamide A, substrate Abz–Lys–Pro–Ala–Glu–Phe–Nph–Ala–Leu, in the presence of E-64, mean ± SD
Text: as §1, §2

cathepsin B = assay: Protease activity in S. mansoni adult extract, cathepsin B substrates (continuous fluorometric assay); details: 1 μM gallinamide A, relative to uninhibited control, mean ± SD
Text: as §1, §2

legumain = assay: Protease activity in S. mansoni adult extract, Cbz–Ala–Ala–Asn–AMC; details: 1 μM gallinamide A, substrate Cbz–Ala–Ala–Asn–AMC, in the presence of E-64, mean ± SD
Text: as §1, §2

cathepsins B and L = assay: Protease activity in S. mansoni adult extract, Cbz–Phe–Arg–AMC; details: 1 μM gallinamide A, endopeptidase, substrate Cbz–Phe–Arg–AMC, mean ± SD
Text: as §1, §2

CC[C@H](C)[C@@H](C(=O)O[C@@H](CC(C)C)C(=O)N[C@@H](CC(C)C)C(=O)N[C@@H](C)/C=C/C(=O)N1C(=O)C=C(OC)[C@@H]1C)N(C)C [gallinamide A]
inhibition (%) (cathepsin C): < 10% | inhibition (%) (cathepsin C; listed as Gallinamide A): 2.8 ± 1.9% | inhibition (%) (cathepsin D): < 10% | inhibition (%) (cathepsin D; listed as Gallinamide A): 0.01 ± 1.54% | inhibition (%) (cathepsin B; endopeptidase activity, substrate Cbz–Arg–Arg–AMC): 94% and 93.7 ± 0.3% | inhibition (%) (cathepsin B; exopeptidase (carboxydipeptidase) activity, substrate Abz–Phe–Arg–Val–Nph): 98.0 ± 2.2% | inhibition (%) (legumain): < 10% | inhibition (%) (legumain; listed as Gallinamide A): 8.2 ± 0.1% | inhibition (%) (cathepsins B and L): 72% | inhibition (%) (cathepsins B and L; listed as Gallinamide A): 71.9 ± 2.0%

Reference: PMC11184554, “Nature-Inspired Gallinamides Are Potent Antischistosomal Agents: Inhibition of the Cathepsin B1 Protease Target and Binding Mode Analysis” (ACS Infectious Diseases, 2024)
